Assay results reported in patent US20220370471A1, “COMPOSITION AND METHOD FOR TREATMENT OF HIPPOCAMPAL SYNAPSE DYSFUNCTION AND COGNITIVE DEFICITS IN ALZHEIMER'S DISEASE” (BOARD OF REGENTS, THE UNIVERSITY OF TEXAS SYSTEM, priority 2019, published 2022).
Each block holds one molecule with its values, some of them ahead of it. Square brackets hold non-standard residues; d marks the D form. Ends that are not written are not given here. Peptide text beside a SMILES is read from it. d2Nal = N[C@H](Cc1ccc2ccccc2c1)C(=O)O; Aib = CC(C)(N)C(=O)O

What was measured:
[1] = test system: hippocampal neurons; assay: Synaptic density (vGLUT1/PSD95) in cultured hippocampal neurons; type: cell-based, mouse; conditions: for Aβ-induced synaptic loss / synaptic density / synaptogenic effect, agonist alone: 1 μM ipamorelin or capromorelin; for Aβ-induced synaptic loss / synaptic density: alone or + 2 μM SKF81297
Description: Immunocytochemistry. […] NIS element software was used for image analysis. “Objective Count” dialog was used for intensity measurement. […] The overlapped dots represent synapses.
Primary hippocampal neuron culture. Hippocampal neuron cultures were prepared as previously described (15). In brief, mouse hippocampi were dissected from postnatal day 0-1 pups in cold HBSS. Cells were dissociated by using 0.025% trypsin at 37° C. for 15 minutes, followed by 10 times homogenization in ice cold DMEM. Dissociated cells were then passed through a 100 μm cell strainer (Corning) and centrifuged for 5 minutes at 210×g. The pellet was gently resuspended in neuron culture medium (Neurobasal A with 2% B27 supplement, 0.5 mM L-glutamine, Invitrogen) and plated on poly-D-lysine (Sigma-Aldrich) coated Lab-Tek chamber slides (Nunc, 177445) with appropriate densities.
Agonist treatment on primary cultured neurons. At 14 days in vitro (DIV14) hippocampal neurons were exposed to the synthetic growth hormone secretagogue receptor agonist MK0677 (Tocris, #5272, 1.5 μM) the dopamine D1-like receptor agonist SKF81297 (Sigma-Aldrich, #S143, 2 μM) or a mixture of MK0677 and SKF81297 for 5 minutes. The exposure was followed by immunostaining to examine the effects of Ghsr1α/Drd1 co-activation on Aβ induced synaptic loss or Ghsr1α/Drd1, Aβ/Ghsr1α interaction as described in previous sections.

[2] = molecular target: T1, Ghsr1α (Mus musculus, UniProt Q99P50, INS247CCPGCC); assay: FlAsH-based FRET assay of Ghsr1α activity in HEK 293T cells; type: cell-based; conditions: oligomeric Aβ42 2 μM, 5 minutes pre-incubation
T1 construct: Mouse full length Ghsr1α cDNA (NCBI Gene ID: 208188) was purchased from OriGene (MR226073); expressed in transfected cells; host or cells: HEK 293T
From the text: FlAsH-based FRET was created by structural dynamics of Ghsr1α with FlAsH in the intercellular loop 3 and enhanced cyan fluorescent protein (ECFP) in the C-terminus (Ghsr1α^FlAsH/ECFP).
FlAsH-based FRET. […] The CCPGCC motif which has higher binding affinity for FlAsH was inserted in the third intracellular loop between Va1247 and Gly248 of Ghsr1α cDNA or between Thr245 and Gly246 of Drd1 cDNA. […] Fluorescence signals were monitored on microplate reader (BioTek Cytation 5) before and after the treatments. […] Area scanning read mode was used to correct artificial inaccuracies. The FRET ratio (FFlAsH/FECFP) was calculated according to equation as previously reported (69):
The terms a and b are correction factors for the two leakages mentioned above. a is the ratio of the direct emission of donor, ECFP at 535 nm, to its emission at 475 nm when excited at 425 nm which was calculated with cells transfected with pcDNA3-Ghsr1α^FlAsH/ECFP or pcDNA3-Drd1^FlAsH/ECFP only. b is the ratio of the direct emission of FlAsH at 535 nm when excited at 425 nm to its emission at 535 nm when excited at 500 nm which was calculated with FlAsH labeled untransfected cells.

[3] = molecular target: T2, Ghsr1α/Drd1 (Mus musculus, UniProt Q99P50); assay: Duolink PLA of Ghsr1α/Drd1 interaction in co-expressing HEK 293T cells; type: cell-based; conditions: oligomeric Aβ42 5 μM, 24 hours
T2 construct: Mouse full length Ghsr1α cDNA (NCBI Gene ID: 208188) was purchased from OriGene (MR226073); expressed in transfected cells; host or cells: HEK 293T
Description: GHSR1α forms a complex with DRD1 to regulate DRD 1-mediated hippocampal synaptic strength and memory (8). In order to fully evaluate the influence of Aβ on GHSR1α, the inventor next examined whether oligomeric Aβ42 affects heterodimerization of GHSR1α and DRD1 by using HEK 293T cells co-expressing Ghsr1α and Drd1 (FIG. 2c, FIG. S2). After an incubation with oligomeric Aβ42 (5 μM) for 24 hours, the interaction between Ghsr1α and Drd1 determined by Duolink PLA was suppressed (FIGS. 2d-e), indicating the inhibitory effect of oligomeric Aβ42 on Ghsr1α/Drd1 heterodimerization. To test whether GHSR1α/DRD1 interaction was modulated in a clinical setting, the inventor examined hippocampal tissues from 5 patients with AD and compared with tissues from 5 healthy controls. […] Decreased Ghsr1α/Drd1 heterodimerization also occurred in 5×FAD mice, and this effect was exacerbated with age (FIGS. 2h-i). […] FlAsH-based FRET assay was performed to examine the effect of oligomeric Aβ42 ([…]) on agonist (SKF81297 100 μM)-induced Drd1 activity in HEK 293T cells expressing Drd1 with FlAsH in the intercellular loop 3 and ECFP in the C-terminus (Drd1^FlAsH/ECFP). […]
(§1) Duolink In Situ Proximity Ligation Assay (PLA). […] NIH Image J was used for PLA signal quantification. […]

[4] = molecular target: T3, Ghsr1α Δaa42-116 (Mus musculus, UniProt Q99P50, DEL42-116); assay: Duolink PLA and Co-IP of oligomeric Aβ42 with Ghsr1α mutants in HEK 293T cells; type: binding; conditions: 5 μM oligomeric Aβ42, 24 hours; Duolink PLA, validated by Co-IP
T3 construct: Mouse full length Ghsr1α cDNA (NCBI Gene ID: 208188) was purchased from OriGene (MR226073); expressed in transfected cells; host or cells: HEK 293T
From the text: Aβ3 physically interacts with GHSR1α. To determine whether GHSR1α expression is changed in the hippocampus in AD, the inventor performed immunohistochemical and membrane blotting assays in post-mortem hippocampal tissues from 4 subjects with AD and 4 non-demented healthy donors (non-AD). He observed increased GHSR1α expression in hippocampal tissues from patients with AD (FIGS. S1a-b and Table S1), which positively correlated with the amounts of soluble Aβ40 and Aβ42 in hippocampi (FIGS. S1c-d). […] Because Aβ binds to multiple proteins (14-16), the inventor next explored whether GHSR1α is an Aβ binding target. In order to examine the interaction between GHSR1α and AP, he labeled GHSR1α and Aβ with their specific antibodies and ran Duolink proximity ligation assay (PLA), which is a sensitive method to visualize and quantify direct protein interactions in situ (17), on hippocampal tissues from 4 subjects with AD and 4 healthy donors. The inventor observed Aβ3/GHSR1α complexes in hippocampi from patients with AD (FIGS. 1a-b). […] HEK 293T cells expressing full-length mouse Ghsr1α or its mutants were exposed to 5 μM oligomeric Aβ42 for 24 hours followed by Duolink PLA to detect Aβ/Ghsr1α complexes. […]
as §1

[5] = molecular target: T4, Drd1 (Mus musculus, UniProt Q61616, INS245CCPGCC); assay: FlAsH-based FRET assay of Drd1 activity in HEK 293T cells; type: cell-based; conditions: oligomeric Aβ42 2 μM preincubation; SKF81297 100 μM
T4 construct: expressed in transfected cells; host or cells: HEK 293T
Description: GHSR1α forms a complex with DRD1 to regulate DRD 1-mediated hippocampal synaptic strength and memory (8). In order to fully evaluate the influence of Aβ on GHSR1α, the inventor next examined whether oligomeric Aβ42 affects heterodimerization of GHSR1α and DRD1 by using HEK 293T cells co-expressing Ghsr1α and Drd1 (FIG. 2c, FIG. S2). After an incubation with oligomeric Aβ42 (5 μM) for 24 hours, the interaction between Ghsr1α and Drd1 determined by Duolink PLA was suppressed (FIGS. 2d-e), indicating the inhibitory effect of oligomeric Aβ42 on Ghsr1α/Drd1 heterodimerization. To test whether GHSR1α/DRD1 interaction was modulated in a clinical setting, the inventor examined hippocampal tissues from 5 patients with AD and compared with tissues from 5 healthy controls. […] Decreased Ghsr1α/Drd1 heterodimerization also occurred in 5×FAD mice, and this effect was exacerbated with age (FIGS. 2h-i). […]
FlAsH-based FRET. […] Fluorescence signals were monitored on microplate reader (BioTek Cytation 5) before and after the treatments. […] Area scanning read mode was used to correct artificial inaccuracies. The FRET ratio (FFlAsH/FECFP) was calculated according to equation as previously reported (69): […]

[6] = molecular target: T5, Drd1 (Mus musculus, UniProt Q61616); assay: Duolink PLA and Co-IP of oligomeric Aβ42 with Drd1 in HEK 293T cells; type: binding; conditions: oligomeric Aβ42 24 hours, Drd1-expressing HEK 293T cells
T5 construct: expressed in transfected cells; host or cells: HEK 293T

[7] = test system: hippocampal CA3-CA1 pathway; assay: Long-term potentiation (fEPSP) in hippocampal slices; conditions: MK0677 1.5 μM, SKF81297 2 μM, alone or in combination
Description: For electrophysiological experiments, mice were anesthetized with isoflurane and decapitated. […] Slices were allowed to rest for 30 minutes after being transferred to the recording chamber before recordings began. Recordings of local field potentials (LFPs) were performed on an Axon Multiclamp 700B amplifier (Molecular Devices), and data were acquired and analyzed using AxoGraph X (AxoGraph Scientific). A tungsten concentric bipolar microelectrode (World Precision Instruments), and a recording glass electrode (1.5 MS2) filled with recording ACSF, were placed approximately 200 μm apart in the Schaffer collateral-commissural pathway in the CA1 region of the hippocampus. Pulses were delivered in 30 seconds intervals. Before baseline recordings commenced, input-output curves were taken, using 25-150 μA stimulation currents in 25 μA steps. Three sweeps were sampled at each stimulation intensity and averaged to represent the voltage response at each step. Recordings of baseline responses lasted for at least 40 minutes. Stimulation intensity was set to approximately 40% of the minimum intensity required to evoke the maximum response (based on the input-output curve). The stimulation intensity was kept consistent throughout the duration of the experiment. […] LTP was induced using a theta burst stimulation (TBS) protocol consisting of 10 bursts (5 pulses at 100 Hz) repeated at 5 Hz delivered two times 30 seconds apart. After LTP induction, LFPs were recorded for an additional 60 minutes. The slope of the field excitatory postsynaptic potential (fEPSP) was measured in Axograph scientific software and sweeps were averaged in bins of 5 for both the baseline and post LTP induction periods. Changes in LFPs are expressed as percentage change from the averaged baseline values.

[8] = molecular target: T6, Ghsr1α/Drd1 complex (Mus musculus, UniProt Q61616+Q99P50); assay: Duolink PLA of Ghsr1α/Drd1 complex in cultured hippocampal neurons; type: cell-based; conditions: oligomeric Aβ42 1 μM, 24 hours; 1.5 μM MK0677, 2 μM SKF81297, or in combination
T6 construct: endogenous in cells; host or cells: primary mouse hippocampal neurons (P0-1, DIV14)
From the text: (§2) Duolink In Situ Proximity Ligation Assay (PLA). […] PLA analysis was referred to previous report (66 67). NIH Image J was used for PLA signal quantification.
(§3) Agonist treatment on primary cultured neurons. […] The exposure was followed by immunostaining to examine the effects of Ghsr1α/Drd1 co-activation on Aβ induced synaptic loss or Ghsr1α/Drd1, Aβ/Ghsr1α interaction as described in previous sections.

[9] = molecular target: T7, Aβ/Ghsr1α complex (Mus musculus, UniProt Q99P50); assay: Duolink PLA of Aβ/Ghsr1α complex in cultured hippocampal neurons; type: cell-based; conditions: oligomeric Aβ42 1 μM, 24 hours; 1.5 μM MK0677, 2 μM SKF81297, or in combination
T7 construct: endogenous in cells; host or cells: primary mouse hippocampal neurons; Aβ42 peptide purchased (GenicBio, A-43-T-1000)
From the text: as §2, §3

[10] = molecular target: DRD1 (Homo sapiens, UniProt P21728); conditions: cited from earlier work
[11] = test system: 5×FAD mice; conditions: systemic ghrelin treatment; cited from earlier work

DRD1, sequence (P21728 whole entry, species assumed): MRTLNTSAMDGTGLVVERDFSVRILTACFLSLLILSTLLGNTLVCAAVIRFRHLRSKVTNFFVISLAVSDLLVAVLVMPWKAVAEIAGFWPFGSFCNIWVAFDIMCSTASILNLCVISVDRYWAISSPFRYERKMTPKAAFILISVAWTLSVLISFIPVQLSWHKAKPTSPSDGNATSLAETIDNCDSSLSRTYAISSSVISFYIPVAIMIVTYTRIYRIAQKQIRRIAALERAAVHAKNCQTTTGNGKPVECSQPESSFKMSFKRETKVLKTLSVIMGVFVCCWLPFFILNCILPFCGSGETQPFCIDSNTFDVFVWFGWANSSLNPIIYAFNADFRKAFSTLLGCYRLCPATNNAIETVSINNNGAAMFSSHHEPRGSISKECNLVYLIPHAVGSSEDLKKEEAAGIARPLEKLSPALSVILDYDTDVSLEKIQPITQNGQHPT
T1 sequence (Q99P50 with tags, fused parts or gaps INS247CCPGCC): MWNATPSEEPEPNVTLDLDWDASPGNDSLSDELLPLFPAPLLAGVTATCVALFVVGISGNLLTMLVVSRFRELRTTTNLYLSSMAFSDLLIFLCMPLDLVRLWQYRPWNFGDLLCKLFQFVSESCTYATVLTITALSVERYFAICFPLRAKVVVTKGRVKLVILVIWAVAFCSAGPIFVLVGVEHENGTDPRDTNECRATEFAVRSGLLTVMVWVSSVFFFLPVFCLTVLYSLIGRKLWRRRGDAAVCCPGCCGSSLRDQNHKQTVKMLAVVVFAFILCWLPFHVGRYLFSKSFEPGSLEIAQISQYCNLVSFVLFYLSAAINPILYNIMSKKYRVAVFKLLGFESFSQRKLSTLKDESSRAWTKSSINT
T2 sequence (Q99P50 whole entry): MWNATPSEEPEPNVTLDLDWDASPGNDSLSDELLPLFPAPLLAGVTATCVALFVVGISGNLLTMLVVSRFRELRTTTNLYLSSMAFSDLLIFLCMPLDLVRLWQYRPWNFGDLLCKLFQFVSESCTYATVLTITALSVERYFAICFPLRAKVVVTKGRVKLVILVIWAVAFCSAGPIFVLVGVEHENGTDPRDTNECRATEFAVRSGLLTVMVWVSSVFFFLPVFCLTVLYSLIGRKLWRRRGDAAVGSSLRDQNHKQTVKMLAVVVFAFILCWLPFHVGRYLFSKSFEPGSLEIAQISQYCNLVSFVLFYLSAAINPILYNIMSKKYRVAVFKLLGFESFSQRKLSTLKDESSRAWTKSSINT
T7 sequence (Q99P50 whole entry): as above
T7 sequence (Q61616 whole entry, further chain): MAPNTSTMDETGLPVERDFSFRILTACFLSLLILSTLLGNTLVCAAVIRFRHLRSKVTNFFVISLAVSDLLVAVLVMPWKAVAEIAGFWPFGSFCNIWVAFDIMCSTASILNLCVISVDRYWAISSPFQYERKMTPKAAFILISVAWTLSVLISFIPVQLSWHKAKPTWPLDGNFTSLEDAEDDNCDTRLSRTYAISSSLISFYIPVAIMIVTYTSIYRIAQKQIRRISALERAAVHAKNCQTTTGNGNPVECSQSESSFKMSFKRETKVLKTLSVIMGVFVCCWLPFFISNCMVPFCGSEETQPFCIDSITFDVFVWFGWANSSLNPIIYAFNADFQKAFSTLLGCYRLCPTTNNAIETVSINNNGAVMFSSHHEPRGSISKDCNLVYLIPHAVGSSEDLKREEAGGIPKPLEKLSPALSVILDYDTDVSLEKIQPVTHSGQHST
T6 sequence (Q99P50 whole entry): as the sequence (Q99P50 whole entry) above
T6 sequence (Q61616 whole entry): as the sequence (Q61616 whole entry, further chain) above
T3 sequence (Q99P50 with tags, fused parts or gaps DEL42-116): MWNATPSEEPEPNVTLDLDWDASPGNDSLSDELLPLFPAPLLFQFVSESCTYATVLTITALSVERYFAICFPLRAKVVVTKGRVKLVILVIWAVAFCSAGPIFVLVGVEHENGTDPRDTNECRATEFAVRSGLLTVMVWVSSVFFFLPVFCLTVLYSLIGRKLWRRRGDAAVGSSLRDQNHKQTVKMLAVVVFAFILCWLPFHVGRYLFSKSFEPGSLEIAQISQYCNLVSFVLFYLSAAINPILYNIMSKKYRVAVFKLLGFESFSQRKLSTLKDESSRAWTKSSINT
T4 sequence (Q61616 with tags, fused parts or gaps INS245CCPGCC): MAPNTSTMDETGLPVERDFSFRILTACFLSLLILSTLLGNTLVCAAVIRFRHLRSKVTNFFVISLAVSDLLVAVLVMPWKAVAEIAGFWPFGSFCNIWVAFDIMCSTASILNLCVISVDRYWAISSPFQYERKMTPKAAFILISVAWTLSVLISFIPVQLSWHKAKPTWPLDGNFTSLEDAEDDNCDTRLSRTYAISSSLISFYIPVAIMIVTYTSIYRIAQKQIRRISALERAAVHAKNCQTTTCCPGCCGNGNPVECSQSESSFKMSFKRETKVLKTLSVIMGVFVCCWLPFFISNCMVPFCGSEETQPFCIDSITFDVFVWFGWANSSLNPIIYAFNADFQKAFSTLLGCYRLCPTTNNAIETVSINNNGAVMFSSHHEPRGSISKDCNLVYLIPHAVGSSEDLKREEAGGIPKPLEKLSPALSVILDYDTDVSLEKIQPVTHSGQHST
T5 sequence (Q61616 whole entry): as the sequence (Q61616 whole entry, further chain) above

Molecule: CC(C)(N)C(=O)N[C@@H](Cc1c[nH]cn1)C(=O)N[C@H](Cc1ccc2ccccc2c1)C(=O)N[C@H](Cc1ccccc1)C(=O)N[C@@H](CCCCN)C(N)=O [ipamorelin] (H-[Aib]H[d2Nal][dF]K-NH2)
- Aβ-induced synaptic loss / synaptic density ([1]; oligomeric Aβ42 1 μM, 24 hours): could ameliorate
- synaptogenic effect, agonist alone ([1]; without oligomeric Aβ42): comparable synaptogenic effect with ghrelin

Molecule: CN1N=C2CCN(C(=O)[C@@H](COCc3ccccc3)NC(=O)C(C)(C)N)C[C@@]2(Cc2ccccc2)C1=O [capromorelin]
- Aβ-induced synaptic loss / synaptic density ([1]; oligomeric Aβ42 1 μM, 24 hours): could ameliorate
- synaptogenic effect, agonist alone ([1]; without oligomeric Aβ42): comparable synaptogenic effect with ghrelin

- impact on FRET ratio in vehicle-treated cells ([2]; no agonist): no impact
- effect on agonist-induced Ghsr1α activation ([2]; then MK0677 50 μM): suppressed
- interaction between Ghsr1α and Drd1 (Duolink PLA) [3]: suppressed
- interaction with Ghsr1α mutant devoid of aa42-116 [4]: no interaction
- impact on agonist-induced Drd1 activation [5]: no impact
- Aβ/DRD1 complexes [6]: not observed
Molecule: oligomeric Aβ42: Aβ42 peptide (GenicBio) incubated at 4° C. for 24 hours to prepare oligomers

Molecule: Oc1cc2c(c(Cl)c1O)CCNCC2c1ccccc1 (stereo not shown) [SKF81297]
- stimulus-evoked hippocampal LTP in 5×FAD slices ([7]; slices from 4 month-old 5×FAD mice): no effect
- hippocampal LTP in non-Tg slices ([7]; slices from 4 month-old non-Tg mice): no effect
- synaptic density / oligomeric Aβ42-induced synapse loss ([1]; oligomeric Aβ42 1 μM, 24 hours, 1.5 μM MK0677, 2 μM SKF81297, or in combination): failed to alleviate
- synaptic density, agonist alone ([1]; without oligomeric Aβ42, MK0677 at doses greater than 1.5 μM, SKF81297 2 μM): increased synaptic density
- Ghsr1α/Drd1 complex formation [8]: not the agonists alone
- Aβ/Ghsr1α complex formation [9]: not MK0677 or SKF81297 alone

Molecule: Oc1cc2c(cc1O)[C@H]1c3ccccc3CN[C@@H]1CC2 (racemic) [dihydrexidine]
- binding to DRD1 / DRD2 [10]: much weaker binding affinity

Molecule: ghrelin: the natural ligand of GHSR1α (GSSFLSPEHQRVQQRKESKKPPAKLQPR; ends and bridges not checked; UniProt Q9UBU3 24-51, looked up)
- hippocampal Aβ load in 5×FAD mice [11]: did not affect hippocampal Aβ load

Molecule: Oc1cc2c(cc1O)C(c1ccccc1)CNCC2 (stereo not shown) [SKF38393]
- binding to DRD1 / DRD2 [10]: selectively bind DRD1
